Three compounds from patent US11780840B2 (Incyte Corporation, priority 2020, dated 2023) can be followed below.

Where only a bound is given, the exact number is not on record here.

In experiment [1] the target is T1, catalytic domain (JH1, amino acids 826-1132) of human JAK2 (Homo sapiens, UniProt O60674).
T1 construct: catalytic domain (JH1, amino acids 826-1132) of human JAK2; FLAG (N); purchased Carna Biosciences 08-445-20N; host or cells: baculovirus expression system
Nature of the experiment: JAK2 LanthaScreen JH1 Binding Assay. As to conditions: JAK2 JH1 (1.5 nM), 50 nM fluorescent JAK2-JH1 tracer, 2 hours at 25° C.; read-out: JH1 BIND. The method in brief: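 TR-FRET tracer-displacement format: compound IC50 from four-parameter curves after 2 h at 25° C. Reaction held 1.5 nM biotinylated, FLAG-tagged JH1 (aa 826-1132), 50 nM tracer, 0.5 nM Streptavidin-Tb, pH 7.5 Tris buffer; 2 mM ATP set nonspecific background.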
A general note: In TR-FRET formats the signal depends on donor and acceptor labels being close together.

The target in experiment [2] is T2, pseudo-kinase domain (JH2, amino-acids 536-812 with 3 surface mutations W659A, W777A, F794H) of human Wild Type JAK2 (Homo sapiens, UniProt O60674, F794H/W659A/W777A).
T2 construct: pseudo-kinase domain (JH2, amino-acids 536-812 with 3 surface mutations W659A, W777A, F794H); His (C); Avi (biotinylated) (C); purchased BPS Bioscience 79463; host or cells: baculovirus expression system
T2 sequence (O60674 536-812 W659A/W777A/F794H): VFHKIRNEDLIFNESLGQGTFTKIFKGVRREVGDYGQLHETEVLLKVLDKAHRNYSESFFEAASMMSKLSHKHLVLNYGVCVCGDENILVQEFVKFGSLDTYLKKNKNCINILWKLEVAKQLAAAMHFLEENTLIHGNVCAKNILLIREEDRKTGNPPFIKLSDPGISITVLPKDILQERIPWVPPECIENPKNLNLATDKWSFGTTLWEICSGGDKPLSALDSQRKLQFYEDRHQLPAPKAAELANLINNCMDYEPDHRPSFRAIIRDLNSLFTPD
The experiment can be described thus: JAK2 LanthaScreen JH2-WT Binding Assay. As to conditions: JAK2 JH2-WT (0.145 nM), 50 nM Fluorescent JAK2-JH2 Tracer, 1 hour at 25° C.; read-out: JH2 BIND WT. The method in brief:
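Biotinylated His-Avi-tagged JAK2 JH2 (0.145 nM), baculovirus-expressed, incubated with compounds, 50 nM fluorescent JH2 tracer and 0.25 nM streptavidin-Tb, 1 h at 25° C in pH 7.5 Tris buffer with MgCl2 and DTT. Non-specific binding defined with 2 mM ATP. TR-FRET read; IC50 from four-parameter fit.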

Experiment [3] addresses T3, pseudo-kinase domain (JH2, amino-acids 536-812 with 3 surface mutations W659A, W777A, F794H) of human V617F mutant JAK2 (Homo sapiens, UniProt O60674, F794H/V617F/W659A/W777A).
T3 construct: pseudo-kinase domain (JH2, amino-acids 536-812 with 3 surface mutations W659A, W777A, F794H); His (C); Avi (biotinylated) (C); purchased BPS Bioscience 79498; host or cells: baculovirus expression system
Nature of the experiment: JAK2 LanthaScreen JH2-V617F Binding Assay. The settings on record: JAK2 JH2-V617F (0.26 nM), 50 nM Fluorescent JAK2-JH2 Tracer, 1 hour at 25° C.; read-out: JH2 BIND V617F. The method in brief:
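This is a TR-FRET tracer-displacement format with a 1 h, 25 °C incubation. It combined 0.26 nM baculovirus-expressed biotinylated JH2-V617F, 50 nM fluorescent JAK2-JH2 tracer and 0.25 nM streptavidin-Tb cryptate in 50 mM Tris pH 7.5, 10 mM MgCl2, 5 mM DTT. Background came from 2 mM ATP, and IC50 values were from four-parameter dose-response fits.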

T3 sequence (O60674 536-812 V617F/W659A/W777A/F794H): as the sequence (O60674 536-812 W659A/W777A/F794H) above, with V82F counted along it
T1 sequence (O60674 826-1132): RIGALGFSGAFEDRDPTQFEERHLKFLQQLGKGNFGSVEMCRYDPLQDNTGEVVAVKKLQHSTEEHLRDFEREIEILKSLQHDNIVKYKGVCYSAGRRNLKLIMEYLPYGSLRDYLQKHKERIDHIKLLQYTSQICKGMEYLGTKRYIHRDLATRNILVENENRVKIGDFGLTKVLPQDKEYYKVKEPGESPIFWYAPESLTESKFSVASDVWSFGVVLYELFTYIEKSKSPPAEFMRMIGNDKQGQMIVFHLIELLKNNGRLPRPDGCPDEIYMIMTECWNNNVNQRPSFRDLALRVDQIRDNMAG

As for `[2H]C([2H])([2H])n1ncc2cc(-c3c(-c4cnn5cccnc45)[nH]c4ncc5c(c34)n(C3CCOCC3)c(=O)n5C)ccc21` [Example 110, 3-Methyl-8-(1-(methyl-d3)-1H-indazol-5-yl)-7-(pyrazolo[1,5-a]pyrimidin-3-yl)-1-(tetrahydro-2H-pyran-4-yl)-3,6-dihydroimidazo[4,5-d]pyrrolo[2,3-b]pyridin-2(1H)-one], the IC50 in experiment [1] is greater than 1000 nM; in experiment [2] it was no more than 10 nM; in experiment [3], no more than 10 nM.
Regarding `Cn1cc(-c2[nH]c3ncc4c(c3c2-c2ccc3c(cnn3C)c2)n(C2CCN(C3(CC#N)CCC3)CC2)c(=O)n4C)cn1` [Example 111, 2-(1-(4-(3-Methyl-8-(1-methyl-1H-indazol-5-yl)-7-(1-methyl-1H-pyrazol-4-yl)-2-oxo-3,6-dihydroimidazo[4,5-d]pyrrolo[2,3-b]pyridin-1(2H)-yl)piperidin-1-yl)cyclobutyl)acetonitrile], the IC50 in experiment [1] is 500 to 1000 nM; in experiment [2], no more than 10 nM; in experiment [3], no more than 10 nM.
For the compound `Cn1cc(-c2[nH]c3ncc4c(c3c2-c2ccc(C#N)cc2)n(C2CCC3(CC2)CN(S(C)(=O)=O)C3)c(=O)n4C)cn1` [Example 112, 4-(3-Methyl-7-(1-methyl-1H-pyrazol-4-yl)-1-(2-(methylsulfonyl)-2-azaspiro[3.5]nonan-7-yl)-2-oxo-1,2,3,6-tetrahydroimidazo[4,5-d]pyrrolo[2,3-b]pyridin-8-yl)benzonitrile], the IC50 is 500 to 1000 nM in experiment [1], no more than 10 nM in experiment [2] and no more than 10 nM in experiment [3].
